Data taken from patent US9334267B2, “RAF inhibitor compounds” (Deciphera Pharmaceuticals, LLC, priority 2012, dated 2016).

Key:
[1] = tested on: HT-29 cells; assay: HT-29 cell proliferation assay (resazurin); assay type: cell-based; details: Homo sapiens, V600E mutation, read-out: Cell Proliferation Inhibition IC50, nM HT-29
Procedure: (§1) HT-29 cells (catalog #HTB-38) are obtained from the American Type Culture Collection (ATCC, Manassas, Va.). Briefly, cells are grown in McCoy's 5A supplemented with 10% characterized fetal bovine serum (Invitrogen, Carlsbad, Calif.), and 1% Penicillin/Streptomycin/L-Glutamine at 37 degrees Celsius, 5% CO2, and 95% humidity. Cells are allowed to expand until reaching 75-90% confluency at which point they are subcultured or harvested for assay use. A serial dilution of test compound is dispensed into a 384-well black clear bottom plate in triplicate. One thousand two-hundred fifty cells are added per well in 50 μL complete growth medium in the 384-well plate. Plates are incubated for 67 hours at 37 degrees Celsius, 5% CO2, and 95% humidity. At the end of the incubation period, 10 μL of a 440 μM solution of resazurin (Sigma, St. Louis, Mo.) in PBS is added to each well of the plate and plates are incubated for an additional 5 hours at 37 degrees Celsius, 5% CO2, and 95% humidity. Plates are read on a Synergy2 reader (Biotek, Winooski, Vt.) using an excitation of 540 nm and an emission of 600 nm. Data is analyzed using Prism software (Graphpad, San Diego, Calif.) to calculate IC50 values.
(§2) The A375, HT-29, and Colo-205 cells (ATCC) harbor a V600E mutation.

[2] = molecular target: T1, human B-Raf V600E (Homo sapiens, UniProt P15056, V600E); assay: Enzymatic assay of B-Raf V600E kinase activity (Raf/MEK1 ATPase, coupled PK/LDH, A340); assay type: biochemical; details: read-out: Enzyme IC50, nM B-Raf V600E
T1 construct: B-RafV600E (residues 433-726 containing V600E mutation) containing an N-terminal purification tag is expressed and purified; made in house
T1 sequence (P15056 433-726 V600E): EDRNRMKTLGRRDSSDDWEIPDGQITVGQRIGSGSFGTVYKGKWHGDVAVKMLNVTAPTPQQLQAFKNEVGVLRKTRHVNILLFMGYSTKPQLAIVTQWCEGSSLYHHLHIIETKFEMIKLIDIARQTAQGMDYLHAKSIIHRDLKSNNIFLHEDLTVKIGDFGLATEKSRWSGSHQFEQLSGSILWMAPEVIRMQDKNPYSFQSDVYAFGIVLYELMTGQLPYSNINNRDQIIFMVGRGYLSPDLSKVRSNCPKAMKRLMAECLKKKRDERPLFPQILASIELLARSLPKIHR
Procedure: Test compounds are evaluated for their inhibitory activities against one or more of human wild type B-Raf, human wild type C-Raf, human B-Raf V600E, human B-Raf V600E+T529I or human B-Raf V600E+G468A. T529I is a threonine to isoleucine B-Raf gatekeeper mutation and G468A is a B-Raf secondary mutation at G1403C in exon 11. The enzymatic assays of B-Raf, C-Raf and B-Raf mutations evaluate a property of Raf and MEK1 complex, which in the presence of ATP, catalyzes an enhanced ATP hydrolysis (Rominger, et al, Arch. Biochem. Biophys. 2007, 464: 130-137; US Patent Publication No. 2006/0211073). The ADP formed is monitored by the well-known coupled PK/LDH (pyruvate kinase/lactate dehydrogenase) system in the form of NADH oxidation, which can be monitored and detected spectrophotometrically by absorbance at 340 nm (A340; for principal of the method see Schindler et al, Science, 2000, 289: 1938-1942). Raf activated MEK1 ATPase activity is a property shared by all forms of Raf proteins.
B-RafV600E (residues 433-726 containing V600E mutation) containing an N-terminal purification tag is expressed and purified essentially as described previously (Wan et al, Cell, 2004, 116, 855-867).
Test compounds are evaluated for their inhibitory activities against one or more of wild type B-Raf, wild type C-Raf, B-Raf V600E, B-Raf V600E+T529I and B-Raf V600E+G468A. T529I is a B-Raf gatekeeper mutation and G468A is a B-Raf secondary mutation. The enzymatic assays of B-Raf, C-Raf and B-Raf mutations evaluate a property of Raf and MEK1 complex, which in the presence of ATP, catalyzes an enhanced ATP hydrolysis (Rominger, et al, Arch. Biochem. Biophys. 2007, 464: 130-137). The ADP formed is monitored by the well-known coupled PK/LDH (pyruvate kinase/lactate dehydrogenase) system in the form of NADH oxidation, which can be monitored and detected by absorbance at 340 nm (A340; for principal of the method see Schindler et al, Science, 2000, 289: 1938-1942). Raf activated MEK1 ATPase activity is a property shared by all forms of Raf proteins. In the B-Raf wild type enzymatic assay, the reaction mixture contains 1.2 nM B-Raf, 30 nM MEK1, 1000 uM ATP, 3.5 units (per 100 ul) of PK, 5 units (per 100 ul) of LDH, 1 mM phosphoenol pyruvate (PEP), and 280 uM of NADH. In the C-Raf assay, the reaction mixture contains 0.6 nM C-Raf, 26 nM MEK1, 2000 uM ATP, and the same amount of PK, LDH, PEP and NADH as above. In the B-Raf V600E assay, the reaction mixture contains […] B-Raf V600E, 26 nM MEK1, 200 uM ATP and the same amount of PK, LDH, PEP and NADH as above. In the B-RafV600E+T529I assay, the reaction mixture contains 6.2 nM B-Raf V600E+T529I, 30 nM MEK1, 200 uM ATP and the same amount of PK, LDH, PEP and NADH as above. In the B-Raf V600E+G468A assay, the reaction mixture contains 3.5 nM B-Raf, 30 nM MEK1, 200 uM ATP and the same amount of PK, LDH, PEP and NADH as above. All assays are started by mixing the above mixture with test compound and monitoring at A340 continuously for approximately 5 hr. […] In the aforementioned assays, the enzyme constructs can be screened prior to or after cleavage of the N-terminal purification tag.

[3] = tested on: Colo205 cells; assay: Colo-205 cell proliferation assay (resazurin); assay type: cell-based; details: Homo sapiens; Colo-205 cells, V600E mutation; read-out: Cell Proliferation Inhibition IC50, nM Colo-205
Procedure: as §1, with “Colo205” for “HT-29”, “#HB-8307)” for “#HTB-38)”, “RPMI 1640” for “McCoy's 5A”, “Calif.), 1 mM sodium pyruvate,” for “Calif.),”, “30-60%” for “75-90%”
as §2

SMILES	IC50 [1]	IC50 [2]	IC50 [3]
Cc1cc(F)c(NC(=O)NCCC(C)(C)C)cc1-c1cc2cnc(NCCN(C)C)nc2nc1C [Example 17, 1-[5-[2-(2-Dimethylaminoethylamino)-7-methyl-pyrido[2,3-d]pyrimidin-6-yl]-2-fluoro-4-methyl-phenyl]-3-(3,3-dimethylbutyl)urea]	< 100 nM	< 150 nM	< 100 nM
CNc1ncc2cc(-c3cc(NC(=O)NC[C@H](O)C(C)(C)C)c(F)cc3C)cnc2n1 [Example 18, 1-[2-Fluoro-4-methyl-5-(2-methylaminopyrido[2,3-d]pyrimidin-6-yl)phenyl]-3-[(2R)-2-hydroxy-3,3-dimethyl-butyl]urea]	< 100 nM	< 150 nM	< 100 nM
CNc1ncc2cc(-c3cc(NC(=O)NC[C@@H](O)C(C)(C)C)c(F)cc3C)cnc2n1 [Example 19, 1-[2-fluoro-4-methyl-5-(2-methylaminopyrido[2,3-d]pyrimidin-6-yl)phenyl]-3-[(2S)-2-hydroxy-3,3-dimethyl-butyl]urea]	100 to 1000 nM	< 150 nM	100 to 1000 nM
Cc1cc(F)c(NC(=O)NCCC(C)(C)C)cc1-c1cc2cnc(N)nc2nc1C [Example 20, 1-(5-(2-Amino-7-methylpyrido[2,3-d]pyrimidin-6-yl)-2-fluoro-4-methylphenyl)-3-(3,3-dimethylbutyl)urea]	< 100 nM	< 150 nM	< 100 nM
Cc1cc(F)c(NC(=O)NCCC(C)(C)C)cc1-c1cc2cnc(NCCN3CCOCC3)nc2nc1C [Example 21, 1-(3,3-Dimethylbutyl)-3-(2-fluoro-4-methyl-5-(7-methyl-2-((2-morpholinoethyl)amino)pyrido[2,3-d]pyrimidin-6-yl)phenyl)ure]	< 100 nM	< 150 nM	< 100 nM
Cc1cc(F)c(NC(=O)NCCC(C)(C)C)cc1-c1cc2cnc(NCc3cn(C)cn3)nc2nc1C [Example 22, 1-(3,3-Dimethylbutyl)-3-(2-fluoro-4-methyl-5-(7-methyl-2-(((1-methyl-1H-imidazol-4-yl)methyl)amino)pyrido[2,3-d]pyrimidin-6-yl)phenyl)urea]	< 100 nM	< 150 nM	< 100 nM
Cc1cc(F)c(NC(=O)NCCC2(C)CC2)cc1-c1cc2cnc(N)nc2nc1C [Example 23, 1-(5-(2-Amino-7-methylpyrido[2,3-d]pyrimidin-6-yl)-2-fluoro-4-methylphenyl)-3-(2-(1-methylcyclopropyl)ethyl)urea]	< 100 nM	< 150 nM	< 100 nM
CNc1ncc2cc(-c3cc(NC(=O)NCCC4(C)CC4)c(F)cc3C)c(C)nc2n1 [Example 24, 1-(2-Fluoro-4-methyl-5-(7-methyl-2-(methylamino)pyrido[2,3-d]pyrimidin-6-yl)phenyl)-3-(2-(1-methylcyclopropyl)ethyl)urea]	< 100 nM	< 150 nM	< 100 nM
Cc1cc(F)c(NC(=O)NCCC(C)(C)F)cc1-c1cc2cnc(NC3COC3)nc2nc1C [Example 25, 1-(3-Fluoro-3-methylbutyl)-3-(2-fluoro-4-methyl-5-(7-methyl-2-(oxetan-3-ylamino)pyrido[2,3-d]pyrimidin-6-yl)phenyl)urea]	< 100 nM	< 150 nM	< 100 nM
CCNc1ncc2cc(-c3cc(NC(=O)NCCC(C)(C)F)c(F)cc3C)c(C)nc2n1 [Example 26, 1-(5-(2-(Ethylamino)-7-methylpyrido[2,3-d]pyrimidin-6-yl)-2-fluoro-4-methylphenyl)-3-(3-fluoro-3-methylbutyl)urea]	< 100 nM	< 150 nM	100 to 1000 nM
CNc1ncc2cc(-c3cc(NC(=O)NCCC(C)(C)C(F)(F)F)c(F)cc3C)c(C)nc2n1 [Example 27, 1-(2-Fluoro-4-methyl-5-(7-methyl-2-(methylamino)pyrido[2,3-d]pyrimidin-6-yl)phenyl)-3-(4,4,4-trifluoro-3,3-dimethylbutyl)urea]	< 100 nM	< 150 nM	< 100 nM
Cc1cc(F)c(NC(=O)NCCC(C)(C)F)cc1-c1cc2cnc(N)nc2nc1C [Example 28, 1-(5-(2-Amino-7-methylpyrido[2,3-d]pyrimidin-6-yl)-2-fluoro-4-methylphenyl)-3-(3-fluoro-3-methylbutyl)urea]	100 to 1000 nM	< 150 nM	100 to 1000 nM
Cc1cc(F)c(NC(=O)NCCC(C)(C)F)cc1-c1cc2cnc(NCCO)nc2nc1C [Example 29, 1-(3-Fluoro-3-methylbutyl)-3-(2-fluoro-5-(2-((2-hydroxyethyl)amino)-7-methylpyrido[2,3-d]pyrimidin-6-yl)-4-methylphenyl)urea]	100 to 1000 nM	< 150 nM	100 to 1000 nM
CNc1ncc2cc(-c3cc(NC(=O)NCCC4(C(F)(F)F)CC4)c(F)cc3C)c(C)nc2n1 [Example 30, 1-(2-Fluoro-4-methyl-5-(7-methyl-2-(methylamino)pyrido[2,3-d]pyrimidin-6-yl)phenyl)-3-(2-(1-(trifluoromethyl)cyclopropyl)ethyl)urea]	< 100 nM	< 150 nM	< 100 nM
COCCNc1ncc2cc(-c3cc(NC(=O)NC4CC(C)(C)C4)c(F)cc3C)c(C)nc2n1 [Example 31, 1-(3,3-Dimethylcyclobutyl)-3-(2-fluoro-5-(2-((2-methoxyethyl)amino)-7-methylpyrido[2,3-d]pyrimidin-6-yl)-4-methylphenyl)urea]	< 100 nM	< 150 nM	< 100 nM
